In patent US11040967B2, “TYK2 inhibitors, uses, and methods for production thereof” (Nimbus Lakshmi, Inc., priority 2017, dated 2021):
Blank lines part the entries; values can stand above or below the compound they belong to.

Tests used:
[1] = Solid form stability of Compound 1 mesylate forms; type: physicochemical
[2] = Dissolution Assay in Fasted Simulated Gastric Fluid; type: physicochemical; conditions: Fasted Simulated Gastric Fluid (FaSSGF), 37° C.
Method: The dissolution bath was filled with 900 mL of media for testing, the bath temperature held at 37° C., the rotation rate of the apparatus was 50 rpm, the draw point for the sampling probe was set exactly halfway between the surface of the media and the surface of the disc. The test article (0.4 g) was compressed into a disc using a Woods apparatus. The sampling time points were 10, 30, 60, 90, 120, 150 & 180. The samples were analysed by HPLC for concentration against a sample preparation of known concentration (ca. 0.5 mg/ml). Dissolution rate was derived from the curve of concentration against time.

solid form stability ([1]; upon drying under ambient conditions): transition to Form IV
Compound: CS(=O)(=O)O.O=C1NCc2nc(-c3c(F)cccc3F)cc(Nc3ccc(C(=O)N4CCCC4)cc3)c21 [Form III]

dissolution rate [2]: 21.2 μg/cm^2/min
Compound: O=C1NCc2nc(-c3c(F)cccc3F)cc(Nc3ccc(C(=O)N4CCOCC4)cc3)c21 [Compound 9]

dissolution rate [2]: 57.5 μg/cm^2/min
Compound: O=C1NCc2nc(-c3c(F)cccc3F)cc(Nc3ccc(C(=O)N4CCCC4)cc3)c21 [Compound 1]

solid form stability ([1]; ambient conditions): stable at ambient conditions
Compound: CS(=O)(=O)O.O=C1NCc2nc(-c3c(F)cccc3F)cc(Nc3ccc(C(=O)N4CCCC4)cc3)c21 [Form IV]

solid form stability ([1]; upon grinding): transition to Form I
Compound: CS(=O)(=O)O.O=C1NCc2nc(-c3c(F)cccc3F)cc(Nc3ccc(C(=O)N4CCCC4)cc3)c21 [Form V]
